The text below walks through data of patent US8481459B2, “Chemical inhibitors of ethylene biosynthesis” (Academia Sinica, priority 2010, dated 2013).

For the assay, the target named is T1, recombinant Arabidopsis ACS5 (Arabidopsis thaliana, UniProt Q37001).
T1 construct: The full-length cDNA of Arabidopsis ACS5 (At5g65800) was cloned to pETDuet (Novagen); 6His (N); made in house; host or cells: E. coli BL21-CodonPlus (Stratagene)
T1 sequence (Q37001 1-470): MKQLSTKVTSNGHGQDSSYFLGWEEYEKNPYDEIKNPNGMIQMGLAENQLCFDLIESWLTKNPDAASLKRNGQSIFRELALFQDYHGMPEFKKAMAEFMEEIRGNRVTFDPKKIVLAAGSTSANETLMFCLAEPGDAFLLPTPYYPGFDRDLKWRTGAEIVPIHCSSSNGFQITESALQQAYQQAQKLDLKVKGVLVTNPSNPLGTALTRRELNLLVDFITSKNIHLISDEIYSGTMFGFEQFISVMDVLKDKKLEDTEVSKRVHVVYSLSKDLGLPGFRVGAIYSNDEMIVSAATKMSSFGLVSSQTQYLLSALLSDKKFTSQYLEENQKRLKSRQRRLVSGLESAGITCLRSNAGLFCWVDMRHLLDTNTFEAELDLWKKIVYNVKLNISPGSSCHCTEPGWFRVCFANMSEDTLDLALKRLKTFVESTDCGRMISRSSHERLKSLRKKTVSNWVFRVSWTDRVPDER
Kind of assay: In vitro ACS activity assay. Type of assay: biochemical. To be noted: purified recombinant ACS5, 30 min at 25° C.; read-out: estimated half maximal inhibitory concentration (IC50), ACS5 enzyme activity. The procedure:
The full-length cDNA of Arabidopsis ACS5 (At5g65800) was cloned to pETDuet (Novagen) to generate pETDuet-6His-ACS5 for expression in E. coli (BL21-CodonPlus, Stratagene) and subsequent purification of the recombinant ACS5 protein. Protein expression was induced at OD600 0.6 by adding 0.4 mM IPTG, and cells were incubated at 16° C. for 18 h. Cells were harvested by centrifugation at 6000×g for 10 min at 4° C. The cell pellet was washed and suspended in 50 mL phosphate buffer (300 mM NaCl, 20 mM phosphate buffer, pH 7.4) containing 20 mM imidazole. Cell lysis was achieved by a continuous high-pressure cell disrupter (TS 2.2 KW, Constant System) with 30 KPsi at 4° C. After washing the cell disrupter twice with 50 ml phosphate buffer containing 20 mM imidazole, the final 150 ml suspension was centrifuged at 10000×g for 30 min at 4° C. The supernatant was applied to a 5-mL HisTrap FF column in an AKTAprime system (GE Healthcare) and was subsequently washed stepwise with 100 mL buffer A (1 mM EDTA, 5 mM DTT, 250 mM HEPES buffer, pH 8.0) containing 20 mM imidazole, then 100 mL buffer A containing 100 mM imidazole. The bound protein was eluted by a 0.1-1.0 M gradient of imidazole in 25 mL buffer A and stored at −80° C. until further analysis.
ACS activity assay was performed as described (Lizada, et al. (1979) Anal Biochem 100, 140-145; Yamagami, et al. (2003) J Biol Chem 278, 49102-49112), with minor modifications. […] Ethylene level was measured by use of a gas chromatograph (HP 6890, Hewlett-Packard) equipped with a capillary column (19095P-U04, Agilent Technologies) and an autosampler (HP 7694, Agilent Technologies). […]
To further test this possibility, recombinant Arabidopsis ACS5 protein from bacterial cells was purified for an in vitro enzyme activity assay. […] The quantity of ACC converted to ethylene by recombinant ACS5 is the readout of ACS activity. […]
`COc1ccc(C2CC(=O)c3cnc(Nc4ccccc4)nc3C2)cc1` (stereo not drawn) [Compound 7303]: the IC50 is 500 nM. As for `Cc1ccc(C2CC(=O)c3cnc(NC4CCCC4)nc3C2)cc1` (stereo not drawn) [Compound 9370], the figure is 1400 nM; as for `CC1(C)CC(=O)c2cnc(NC3CCCC3)nc2C1` [Compound 9393], 3200 nM.
